Assay type: in vivo
Details: rat brain, 500 μM dopamine alone, no contrast agent, data not shown

NCCc1ccc(O)c(O)c1 [dopamine]
MRI signal changes on infusion alone: no noticeable signal changes

Source: paper PMC3073400 (Nature biotechnology, 2010)
